From patent publication US6767725B2, “Acetyl amino acid racemase from amycolatopsis orientalis for racemizing carbamoyl amino acids” (Degussa AG, priority 2000, dated 2004)

Experiments:
[1] = test system: N-acetyl amino acid racemase from Amycolatopsis orientalis subsp. lurida; experiment: Detection of racemase activity of recombinant AAR (polarimetric racemization assay); format: biochemical; conditions: substrate 25 mM, Tris/HCl 50 mM pH 8.0, cobalt chloride 6 mM, approx 150 μg purified protein, 30° C., 3 to 12 hours, polarimeter λ=365 nm
Experimental: The substrate spectrum of the N-acetyl amino acid racemase from Amycolatopsis orientalis subsp. lurida was tested using the enzyme assay described below. The assay was composed of the following: [table] Enantiomerically pure amino acid derivatives were used in the test and the formation of the corresponding racemate was monitored in the polarimeter (Perkin-Elmer 241). Incubation took place at 30° C. (heated cell) for 3 to 12 hours. The measurements were taken at a wave length of λ=365 nm.

[2] = target: T1, N-acyl amino acid racemase from A. TS-1-60 (Amycolatopsis sp, UniProt Q44244); experiment: Racemase activity of the N-acyl amino acid racemase from A. TS-1-60; format: biochemical, Amycolatopis sp. TS-1-60; conditions: N-carbamoyl-D-Met as substrate
T1 sequence (Q44244 1-368): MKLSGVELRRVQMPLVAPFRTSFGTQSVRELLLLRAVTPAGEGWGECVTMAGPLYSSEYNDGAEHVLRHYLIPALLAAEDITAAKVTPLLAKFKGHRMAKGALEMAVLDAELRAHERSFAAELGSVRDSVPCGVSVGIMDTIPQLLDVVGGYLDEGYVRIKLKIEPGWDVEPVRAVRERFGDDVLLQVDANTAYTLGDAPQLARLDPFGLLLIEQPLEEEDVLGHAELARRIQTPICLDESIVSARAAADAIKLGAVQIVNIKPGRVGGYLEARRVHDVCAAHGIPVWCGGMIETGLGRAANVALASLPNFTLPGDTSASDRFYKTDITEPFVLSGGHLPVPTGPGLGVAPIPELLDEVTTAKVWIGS
From the text: The N-acyl amino acid racemase from A. TS-1-60 with N-carbamoyl-D-Met as substrate has an activity of 100 mU/mg. This specific activity is thus 35% lower than that of the racemase from A. orientalis subsp. lurida.

Row | Compound | Specific activity of the AAR [1] | activity (specific activity) of the racemase from A. TS-1-60 [2] | specific activity lower than that of the racemase from A. orientalis subsp. lurida ([2]; TS-1-60 racemase versus A. orientalis subsp. lurida racemase)
1 | CSCC[C@@H](NC(N)=O)C(=O)O [N-Carbamoyl-D-Met] | 155 mU/mg | 100 mU/mg | 35%
2 | NC(=O)N[C@H](Cc1ccccc1)C(=O)O [N-Carbamoyl-D-Phe] | 20 mU/mg |  | 
3 | CC(C)C[C@H](NC(N)=O)C(=O)O [N-Carbamoyl-L-Leu] | 20 mU/mg |  | 
4 | CSCC[C@H](NC(N)=O)C(=O)O [N-Carbamoyl-L-Met] | 118 mU/mg |  | 
5 | NC(=O)N[C@@H](Cc1ccc(O)cc1)C(=O)O [N-Carbamoyl-L-Tyr] | 62 mU/mg |  | 
6 | CC(C)[C@H](NC(N)=O)C(=O)O [N-Carbamoyl-L-Val] | 20 mU/mg |  | 
7 | N-Carbamoyl-L-Abs | 15 mU/mg |  | 
